From US8895585B2, “Nicotinamide derivative or salt thereof” (FUJIFILM Corporation, priority 2010, dated 2014)
Where two headings read alike, the source gives them in different places.

Columns and labels:
[1] = test system: THP-1 cells; assay: TNFα generation assay; format: cell-based, human
In short: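 THP-1 cells differentiated to macrophage-like cells with 10 ng/ml IFN-γ for 2 days, preincubated with compound 30 min at room temperature, then cultured 7 h on plates coated with human IgG (10 μg/ml). Secreted TNFα measured by ELISA or AlphaLISA.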

[2] = biological target: T1, glutathione S-transferase (GST)-fused full-length human Syk protein (Homo sapiens, UniProt P43405); assay: Syk enzyme assay; format: biochemical
T1 construct: (GST)-fused full-length human Syk protein; GST (glutathione S-transferase); purchased Carna Biosciences
In short: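 IC50 values come from a time-resolved FRET readout (615 and 665 nm) of substrate phosphorylation, measured after an EDTA stop and 1 h antibody binding. The kinase reaction ran 40 min at room temperature with 27 μM ATP and 0.4 μM biotin-peptide, following a 15 min compound preincubation with baculovirus-made GST-full-length human Syk.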

[3] = Homo sapiens, THP-1, THP-1 cells, Table 22, read-out: IC50 in TNFα generation assay
[4] = Syk enzyme assay, Test Example 1, read-out: IC50 of Syk-inhibitory activity

Compound | IC50 [1, 3] [nM] | IC50 [2, 4] [nM] | IC50 ([1]; Homo sapiens, THP-1, 7 h, IFN-γ-differentiated THP-1 cells on human IgG-coated plate, cultured 7 hours, read-out: TNFα generation inhibitory activity (IC50)) [nM] | IC50 ([2]; read-out: Syk-inhibitory activity (IC50)) [nM] | IC50 ([1]; THP-1 cells, Table 22, read-out: IC50 in TNFα generation assay) [nM]
CCC[C@@H](Nc1nc(Nc2ccnc(-c3cccc(OC)c3F)c2)c(C(N)=O)cc1F)[C@H](C)N [Example 006-289, 6-(((2S,3R)-2-aminohexan-3-yl)amino)-5-fluoro-2-((2-(2-fluoro-3-methoxyphenyl)pyridin-4-yl)amino)nicotinamide] | < 65 | < 10 |  |  | 
COCCn1ncc2cc(Nc3nc(N[C@H](CC(C)C)[C@H](C)N)c(F)cc3C(N)=O)ccc21 [Example 006-385, 6-(((2S,3R)-2-amino-5-methylhexan-3-yl)amino)-5-fluoro-2-((1-(2-methoxyethyl)-1H-indazol-5-yl)amino)nicotinamide] | 65 to 130 | < 10 |  |  | 
NC(=O)c1cc(F)c(N[C@@H]2CCCC[C@@H]2N)nc1Nc1ccnc(Cl)c1 (relative stereo) [Example 006-163, 6-((cis-2-aminocyclohexyl)amino)-2-((2-chloropyridin-4-yl)amino)-5-fluoronicotinamide] | 65 to 130 | < 10 |  |  | 
CC(C)C[C@@H](Nc1nc(Nc2ccc3ncccc3c2)c(C(N)=O)cc1F)C(N)=O [Example 012-009] | 65 to 130 | < 10 |  |  | 
NC(=O)c1cc(F)c(N[C@@H]2CCCC[C@@H]2N)nc1Nc1cnc2ccccc2c1 (relative stereo) [Example 7, 6-(cis-2-aminocyclohexylamino)-5-fluoro-2-(quinolin-3-ylamino)nicotinamide] |  |  | ≤ 200 | ≤ 1000 | 
CCN(CC)CCn1ccc2c(Nc3nc(N[C@@H]4CCCC[C@@H]4N)c(F)cc3C(N)=O)ccnc21 [Example 004-028] | 65 to 130 | < 10 |  |  | 
CC(C)c1nn(C)c2ccc(Nc3nc(N[C@H](C4CC4)[C@H](C)N)c(F)cc3C(N)=O)cc12 [Example 006-580, 6-(((1R,2S)-2-amino-1-cyclopropylpropyl)amino)-5-fluoro-2-((3-isopropyl-1-methyl-1H-indazol-5-yl)amino)nicotinamide] | 130 to 200 | < 10 |  |  | 
Cc1nc2ccc(Nc3nc(NC4CCCCC4N)c(F)cc3C(N)=O)cc2nc1C (stereo not drawn) [Example 002-123] | 130 to 200 | < 10 |  |  | 
NC(=O)c1cc(F)c(N[C@@H]2CCCC[C@@H]2N)nc1Nc1cncc(-c2ccno2)c1 (relative stereo) [Example 004-141, 6-(cis-2-aminocyclohexylamino)-5-fluoro-2-((5-(isoxazol-5-yl)pyridin-3-yl)amino)-nicotinamide] | 65 to 130 | < 10 |  |  | 
NC(=O)c1cc(F)c(N[C@@H]2CCCC[C@@H]2N)nc1Nc1ccc2nc(-c3ccccc3)cn2c1 [Example 004-014] | 130 to 200 | < 10 |  |  | 
CC(C)C[C@@H](Nc1nc(Nc2cncc(C3CC3)c2)c(C(N)=O)cc1F)[C@H](C)N [Example 006-412, 6-(((2S,3R)-2-amino-5-methylhexan-3-yl)amino)-2-((5-cyclopropylpyridin-3-yl)amino)-5-fluoronicotinamide] | 130 to 200 | < 10 |  |  | 
Cn1nc(F)c2cc(Nc3nc(NC4CCCCC4N)c(F)cc3C(N)=O)ccc21 (stereo not drawn) [Example 002-196] | 65 to 130 | < 10 |  |  | 
CCOCCOCCn1cc2cc(Nc3nc(N[C@@H]4CCCC[C@@H]4N)c(F)cc3C(N)=O)ccc2n1 (relative stereo) [Example 004-095, 6-(cis-2-aminocyclohexylamino)-2-((2-(2-(2-ethoxyethoxy)ethyl)-2H-indazol-5-yl)amino)-5-fluoronicotinamide] | 130 to 200 | < 10 |  |  | 
CCCc1nn(CC)c2ccc(Nc3nc(N[C@@H]4CCCC[C@@H]4N)c(F)cc3C(N)=O)cc12 [Example 006-457, 6-(((1R,2S)-2-aminocyclohexyl)amino)-2-((1-ethyl-3-propyl-1H-indazol-5-yl)amino)-5-fluoronicotinamide] | 130 to 200 | < 10 |  |  | 
CC[C@@H](Nc1nc(Nc2cncc(C3CC3)c2)c(C(N)=O)cc1F)[C@H](C)N [Example 006-255, 6-(((2S,3R)-2-aminopentan-3-yl)amino)-2-((5-cyclopropylpyridin-3-yl)amino)-5-fluoronicotinamide] | 65 to 130 | < 10 |  |  | 
NC(=O)c1cc(F)c(NC2CCCCC2N)nc1Nc1ccc2nc(OCCN3CCCC3=O)ccc2c1 (stereo not drawn) [Example 002-113] | 130 to 200 | < 10 |  |  | 
CCCc1nn(CCF)c2ccc(Nc3nc(N[C@@H]4CCCC[C@@H]4N)c(F)cc3C(N)=O)cc12 [Example 006-459, 6-(((1R,2S)-2-aminocyclohexyl)amino)-5-fluoro-2-((1-(2-fluoroethyl)-3-propyl-1H-indazol-5-yl)amino)nicotinamide] | 65 to 130 | < 10 |  |  | 
NC(=O)c1cc(F)c(N[C@@H]2CCCC[C@@H]2N)nc1Nc1ccc2nn(CC3CC3)cc2c1 (relative stereo) [Example 004-093, 6-(cis-2-aminocyclohexylamino)-2-((2-(cyclopropylmethyl)-2H-indazol-5-yl)amino)-5-fluoronicotinamide] | 130 to 200 | < 10 |  |  | 
NC(=O)c1cc(F)c(N[C@@H]2CCCC[C@@H]2N)nc1Nc1cnc2ccccc2c1 [Example 37-4, 6-((1R,2S)-2-aminocyclohexylamino)-5-fluoro-2-((quinolin-3-yl)amino)nicotinamide] | < 65 | < 10 |  |  | 
Cc1cccc(Nc2nc(NC[C@H](C)N)c(F)cc2C(N)=O)c1 [Example 006-099] | < 65 | 10 to 50 |  |  | 
C[C@H](CN)Nc1nc(Nc2ccc3ncccc3c2)c(C(N)=O)cc1F [Example 39-3, (R)-6-((1-aminopropan-2-yl)amino)-5-fluoro-2-((quinolin-6-yl)amino)nicotinamide] | < 65 | < 10 |  |  | 
CCOc1nn(CC)c2ccc(Nc3nc(N[C@H](CC(C)C)[C@H](C)N)c(F)cc3C(N)=O)cc12 [Example 006-592, 6-(((2S,3R)-2-amino-5-methylhexan-3-yl)amino)-2-((3-ethoxy-1-ethyl-1H-indazol-5-yl)amino)-5-fluoronicotinamide] | 130 to 200 | < 10 |  |  | 
6-(((2R,3S)-3-aminobutan-2-yl)amino)-2- ((5,6-dimethylpyridin-3-yl)amino)-5- fluoronicotinamide 6-(((2S,3R)-3-aminobutan-2-yl)amino)-2- (5,6-dimethylpyridin-3-yl)amino)-5- fluoronicotinamide [Example 006-194] |  | 10 to 50 |  |  | 65 to 130
COc1ccc(-c2cncc(Nc3nc(N[C@@H]4CCCC[C@@H]4N)c(F)cc3C(N)=O)c2)c(OC)c1 (relative stereo) [Example 004-190, 6-(cis-2-aminocyclohexylamino)-2-((5-(2,4-dimethoxyphenyl)pyridin-3-yl)amino)-5-fluoronicotinamide] | 130 to 200 | < 10 |  |  | 
NC(=O)c1cc(F)c(N[C@@H]2CCCC[C@@H]2N)nc1Nc1cncc2[nH]ccc12 (relative stereo) [Example 004-062] | < 65 | < 10 |  |  | 
NC(=O)c1cc(F)c(N[C@@H]2CCCC[C@@H]2N)nc1Nc1cncc(NC(=O)c2ccccn2)c1 (relative stereo) [Example 027-020, N-(5-(6-(cis-2-aminocyclohexylamino)-3-carbamoyl-5-fluoropyridin-2-yl)aminopyridin-3-yl)picolinamide] | 130 to 200 | 10 to 50 |  |  | 
NC(=O)c1cc(F)c(N[C@@H]2CCCC[C@@H]2N)nc1Nc1ccnc2c1ccn2CCN1CCOCC1 [Example 004-025] | < 65 | < 10 |  |  | 
